For series [1], the system named is Mus musculus. Kind of series: Inhibition of homologous recombinant repair in human SW1990 cells xenografted in BALB/c mouse assessed as reduction in FOXM1 expression at 45 mg/kg, ip after 4 days by immunohistochemical analysis. Format: functional, organism-based. To be noted: time 4.0 day. In general terms: A xenograft is tissue or cells of one species grown in another, often human tumour cells in immunodeficient mice.

In series [2] the target is T1, Bromodomain-containing protein 4 (Homo sapiens, UniProt O60885). The series is described as follows: Inhibition of recombinant BRD4 BD2 (unknown origin) incubated for 120 mins by TR-FRET assay. On the technique in general: Time-resolved FRET reads energy transfer from a long-lived donor to a nearby acceptor.
The subject of series [3] is SW1990. Kind of series: Induction of autophagy in human SW1990 cells xenografted in BALB/c mouse assessed as decrease in p62 expression at 45 mg/kg, ip after 4 days by Q-PCR analysis. Format: functional, organism-based. To be noted: time 4.0 day.
In series [4] the test system is Mus musculus. Kind of series: Inhibition of homologous recombinant repair in human SW1990 cells xenografted in BALB/c mouse assessed as reduction in c-Myc expression at 45 mg/kg, ip after 4 days by immunohistochemical analysis. It is filed as functional, organism-based. To be noted: time 4.0 day.
Series [5] concerns SW1990. The series is described as follows: Inhibition of homologous recombinant repair in human SW1990 cells assessed as increase in […] expression at 1 to 2 uM after 4 days by Western blot analysis. It is filed as functional, cell-based. The following applies: dose 1-2 µM, time 4.0 day.
Series [6] concerns the target T1, Bromodomain-containing protein 4. The series is described as follows: Inhibition of recombinant BRD4 (unknown origin) at 1 uM incubated for 120 mins by TR-FRET assay relative to control.
Series [7] deals with Bromodomain-containing protein 2 (Homo sapiens, UniProt P25440). Kind of series: Inhibition of recombinant BRD2 BD1 (unknown origin) incubated for 120 mins by TR-FRET assay.
The subject of series [8] is SW1990. Kind of series: Induction of autophagy in human SW1990 cells assessed as increase in LC3B expression at 1 to 2 uM incubated for 4 days by immunofluorescence assay. The following applies: dose 1-2 µM, time 4.0 day. Format: functional, cell-based.
The test system of series [9] is SW1990. Kind of series: Inhibition of homologous recombinant repair in human SW1990 cells assessed as increase in […] expression at 1 to 2 uM after 4 days by Q-PCR analysis. It is filed as functional, cell-based. To be noted: dose 1-2 µM, time 4.0 day.
Series [10] concerns SW1990. The series is described as follows: Induction of autophagy in human SW1990 cells xenografted in BALB/c mouse assessed as increase in ATG5 expression at 45 mg/kg, ip after 4 days by Q-PCR analysis. Format: functional, organism-based. To be noted: time 4.0 day.
The subject of series [11] is SW1990. Kind of series: Induction of autophagy in human SW1990 cells assessed as increase in pAMPKalpha expression at 1 to 2 uM incubated for 4 days by immunofluorescence assay. It is filed as functional, cell-based. The following applies: dose 1-2 µM, time 4.0 day.
Series [12] concerns SW1990. Kind of series: Induction of autophagy in human SW1990 cells assessed as increase in Beclin1 expression at 1 to 2 uM incubated for 4 days by immunofluorescence assay. Format: functional, cell-based. To be noted: dose 1-2 µM, time 4.0 day.
Series [13] concerns SW1990. Kind of series: Induction of DNA damage in human SW1990 cells assessed as increase in gammaH2AX at 1 to 2 uM incubated for 4 days by immunofluorescence assay. It is filed as functional, cell-based. The following applies: dose 1-2 µM, time 4.0 day.
In series [14] the test system is Mus musculus. Kind of series: Effect on cell cycle progression in human SW1990 cells xenografted in BALB/c mouse assessed as reduction in E2F2 expression at 45 mg/kg, ip after 4 days by Western blot analysis. It is filed as functional, organism-based. To be noted: time 4.0 day.
Series [15] has as its system SW1990. Kind of series: Inhibition of homologous recombinant repair in human SW1990 cells assessed as reduction in FOXM1 expression at 1 to 2 uM after 4 days by Western blot analysis. It is filed as functional, cell-based. To be noted: dose 1-2 µM, time 4.0 day. (In general: A western blot detects proteins with antibodies after separation by electrophoresis.)
For series [16], the system named is Mus musculus. The series is described as follows: Inhibition of homologous recombinant repair in human SW1990 cells xenografted in BALB/c mouse assessed as reduction in Rad51 expression at 45 mg/kg, ip after 4 days by immunohistochemical analysis. It is filed as functional, organism-based. To be noted: time 4.0 day.
Series [17] concerns Mus musculus. The series is described as follows: Effect on cell cycle progression in human SW1990 cells xenografted in BALB/c mouse assessed as reduction in E2F2 expression at 45 mg/kg, ip after 4 days by Q-PCR analysis. Format: functional, organism-based. To be noted: time 4.0 day.
Series [18] concerns SW1990. Kind of series: Induction of autophagy in human SW1990 cells assessed as reduction in Bcl-2 expression at 1 to 2 uM incubated for 4 days by immunofluorescence assay. Format: functional, cell-based. To be noted: dose 1-2 µM, time 4.0 day.
The test system of series [19] is Mus musculus. Kind of series: In vivo inhibition of BRD4 expression in human […] cells xenografted in BALB/c mouse at 45 mg/kg, ip administered for 28 consecutive days by Western blot analysis. It is filed as functional, organism-based. The following applies: time 28.0 day.
For series [20], the system named is SW1990. Kind of series: Inhibition of homologous recombinant repair in human SW1990 cells assessed as reduction in BRCA1 expression at 4 uM after 4 days by Q-PCR analysis. Format: functional, cell-based. To be noted: time 4.0 day.
The subject of series [21] is Mus musculus. Kind of series: Toxicity in BALB/c mouse xenografted with human SW1990 cells assessed as spleen damage at 15 mg/kg, ip administered for 28 consecutive days by H and E staining based […] microscopic analysis. Format: organism-based. To be noted: in vivo, 672 h, time 28 day.
For series [22], the system named is SW1990. Kind of series: Induction of cell cycle arrest in human SW1990 cells assessed as accumulation of cells at G2/M phase at 4 uM incubated for 4 days by propidium iodide staining based flow cytometry (reference value: 5.89%). It is filed as functional. The following applies: time 4 day.
For series [23], the system named is SW1990. The series is described as follows: Effect on cell cycle progression in human SW1990 cells assessed as reduction in Olaparib-induced CDK6 expression at 1 uM after 4 days in presence of Olaparib by Western blot analysis. To be noted: time 4.0 day. Format: functional, cell-based.
The test system of series [24] is SW1990. Kind of series: Induction of cell cycle arrest in human SW1990 cells assessed as accumulation of cells at G0/G1 phase at 4 uM incubated for 4 days by propidium iodide staining based flow cytometry (reference value: 64.79%). To be noted: time 4 day. Format: functional.
Series [25] relates to SW1990. The series is described as follows: Inhibition of homologous recombinant repair in human SW1990 cells assessed as increase in […] expression at 4 uM after 4 days by Q-PCR analysis. It is filed as functional, cell-based. The following applies: time 4.0 day.
Series [26] has as its system Mus musculus. The series is described as follows: Toxicity in BALB/c mouse xenografted with human SW1990 cells assessed as effect on body weight at 15 mg/kg, ip administered for 28 consecutive days in presence of 45 mg/kg Olaparib. To be noted: in vivo, 672 h, time 28 day. It is filed as organism-based.
Series [27] has as its system Mus musculus. Kind of series: Toxicity in BALB/c mouse xenografted with human SW1990 cells assessed as spleen damage at 15 mg/kg, ip administered for 28 consecutive days in presence of 45 mg/kg Olaparib. Format: organism-based. The following applies: in vivo, 672 h, time 28 day.
Series [28] concerns the target Poly [ADP-ribose] polymerase 1 (Homo sapiens, UniProt P09874). The series is described as follows: Inhibition of PARP1 in human SW1990 cells assessed as reversal of Olaparib-induced PARP1 accumulation in nucleus at 1 uM after 4 days by Western blot analysis. Format: cell-based. To be noted: time 4.0 day.
In series [29] the test system is SW1990. The series is described as follows: Inhibition of homologous recombinant repair in human SW1990 cells assessed as reduction in Olaparib-induced BRCA1 expression at 1 uM after 4 days in presence of Olaparib by Q-PCR analysis. It is filed as functional, cell-based. The following applies: time 4.0 day.
In series [30] the test system is Mus musculus. Kind of series: Toxicity in BALB/c mouse xenografted with human SW1990 cells assessed as heart damage at 15 mg/kg, ip administered for 28 consecutive days in presence of 45 mg/kg Olaparib. Format: organism-based. The following applies: in vivo, 672 h, time 28 day.
Series [31] has as its system SW1990. The series is described as follows: Inhibition of homologous recombinant repair in human SW1990 cells assessed as reduction in FOXM1 expression at 4 uM after 4 days by Western blot analysis. It is filed as functional, cell-based. To be noted: time 4.0 day.
In series [32] the test system is SW1990. The series is described as follows: Effect on cell cycle progression in human SW1990 cells assessed as reduction in Olaparib-induced PLK1 expression at 1 uM after 4 days in presence of Olaparib by Q-PCR analysis. It is filed as functional, cell-based. The following applies: time 4.0 day.
Series [33] relates to Mus musculus. The series is described as follows: In vivo inhibition of BRD4 expression in human SW1900 cells xenografted in BALB/c mouse assessed as reversal of Olaparib-induced BRD4 accumulation at 15 mg/kg, ip administered for 28 consecutive days in presence of 45 mg/kg Olaparib by immunohistochemical analysis. Format: functional, organism-based. To be noted: time 28.0 day.

Calls of active or inactive are those of the source. The calls are words filed in the database; no cut-off is given here.

Sequence of Poly [ADP-ribose] polymerase 1 (P09874 whole entry): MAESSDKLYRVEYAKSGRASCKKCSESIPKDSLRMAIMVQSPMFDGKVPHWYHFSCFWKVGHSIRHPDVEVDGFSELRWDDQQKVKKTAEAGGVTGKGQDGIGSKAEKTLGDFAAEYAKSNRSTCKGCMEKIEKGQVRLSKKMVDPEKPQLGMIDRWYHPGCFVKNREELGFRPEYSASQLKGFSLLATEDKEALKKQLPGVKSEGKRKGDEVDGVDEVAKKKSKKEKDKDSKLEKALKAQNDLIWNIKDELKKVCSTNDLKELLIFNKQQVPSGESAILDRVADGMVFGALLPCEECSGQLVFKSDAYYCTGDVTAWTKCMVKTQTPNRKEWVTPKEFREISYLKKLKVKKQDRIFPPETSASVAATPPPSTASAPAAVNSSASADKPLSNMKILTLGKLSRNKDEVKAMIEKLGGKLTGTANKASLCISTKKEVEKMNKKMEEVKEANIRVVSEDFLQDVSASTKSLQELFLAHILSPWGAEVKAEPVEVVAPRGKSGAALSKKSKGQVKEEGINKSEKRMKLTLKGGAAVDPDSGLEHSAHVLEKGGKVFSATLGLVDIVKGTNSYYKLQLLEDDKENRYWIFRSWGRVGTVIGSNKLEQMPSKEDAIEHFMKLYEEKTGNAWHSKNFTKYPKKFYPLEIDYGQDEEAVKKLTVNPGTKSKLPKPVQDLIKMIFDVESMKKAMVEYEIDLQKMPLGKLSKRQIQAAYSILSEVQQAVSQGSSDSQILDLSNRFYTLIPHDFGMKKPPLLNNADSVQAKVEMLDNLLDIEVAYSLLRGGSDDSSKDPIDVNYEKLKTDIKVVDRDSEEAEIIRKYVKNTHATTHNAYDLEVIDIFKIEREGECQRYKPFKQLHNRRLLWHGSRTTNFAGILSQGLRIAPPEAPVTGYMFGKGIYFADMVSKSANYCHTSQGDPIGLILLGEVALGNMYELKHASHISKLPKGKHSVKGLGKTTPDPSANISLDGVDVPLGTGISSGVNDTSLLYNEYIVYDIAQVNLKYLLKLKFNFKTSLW
Sequence of Bromodomain-containing protein 2 (P25440 whole entry): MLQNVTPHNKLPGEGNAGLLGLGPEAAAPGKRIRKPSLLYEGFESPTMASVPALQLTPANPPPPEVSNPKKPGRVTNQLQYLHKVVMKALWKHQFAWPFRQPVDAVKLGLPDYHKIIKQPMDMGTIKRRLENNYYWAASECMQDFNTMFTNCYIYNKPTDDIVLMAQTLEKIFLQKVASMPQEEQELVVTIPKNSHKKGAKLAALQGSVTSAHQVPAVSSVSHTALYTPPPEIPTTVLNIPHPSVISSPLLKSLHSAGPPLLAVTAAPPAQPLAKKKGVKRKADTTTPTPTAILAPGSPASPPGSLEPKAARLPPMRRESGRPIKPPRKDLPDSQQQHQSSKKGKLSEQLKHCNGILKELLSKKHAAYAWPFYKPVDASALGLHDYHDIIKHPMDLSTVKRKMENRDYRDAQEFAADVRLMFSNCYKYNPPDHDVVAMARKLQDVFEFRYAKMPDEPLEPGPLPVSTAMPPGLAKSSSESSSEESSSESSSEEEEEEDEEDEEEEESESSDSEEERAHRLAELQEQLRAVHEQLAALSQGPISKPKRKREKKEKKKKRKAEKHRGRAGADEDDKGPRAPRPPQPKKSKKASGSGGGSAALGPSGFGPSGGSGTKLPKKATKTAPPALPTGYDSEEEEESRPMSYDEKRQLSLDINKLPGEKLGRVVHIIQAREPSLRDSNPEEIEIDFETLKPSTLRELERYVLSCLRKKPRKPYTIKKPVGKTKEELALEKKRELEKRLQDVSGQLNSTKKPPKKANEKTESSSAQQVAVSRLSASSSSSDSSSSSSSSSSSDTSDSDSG

Regarding `CC[C@@H]1C(=O)N(C)c2cnc(N(C)c3ccc(-c4nc5c(C(N)=O)cccc5[nH]4)cc3OC)nc2N1C1CCCC1`, the inhibition entry in series [1], in [4], in series [5], in series [9], in series [15] and in series [16] was “Active” throughout. The values for the IC50 in [2] and in series [7] were 157 nM and 381 nM, respectively. Besides, the result in series [3], in series [8], in series [10], in series [11], in series [12] and in series [13] was Active. In addition, the outcome in series [14], in series [17], in series [18] and in [19] was Active. In addition, in series [6], the inhibition – broadly, the change of the read-out against control, counted positive when it falls – came out at 76.2%.

`Cc1sc2c(c1C)C(c1ccc(Cl)cc1)=N[C@@H](CC(=O)OC(C)(C)C)c1nnc(C)n1-2`: the inhibition entry in series [20], in [25], in [28], in series [29] and in series [31] was “Active” throughout. The Activity entry in series [21] is reported as “Non-Toxic”; in [22] it was 5.51%; in [24], 75.06%; in series [26], “Non-Toxic”; in series [27], “Non-Toxic”; in [30], “Non-Toxic”. For the same molecule, the outcome in series [23], in series [32] and in [33] was Active.

These data come from ChEMBL document CHEMBL5053549, “Discovery of Potent and Novel Dual PARP/BRD4 Inhibitors for Efficient Treatment of Pancreatic Cancer” (J Med Chem, 2021).
